This passage reports melting point results from a melting point compilation (Tetko et al.).

Structures are written as SMILES.

On to `O=C(CCc1ccc(O)cc1)ON1C(=O)CCC1=O`, for which the melting point (as a rule, the temperature of the solid-liquid transition) lay in the range of 133 to 135 °C.
On to `O=C(CCl)OCCOC(=O)CCl`, for which the melting point came to 45.5 °C.
For the compound `O=C1c2ccccc2C(=O)N1Cc1ccccc1`, the melting point worked out at 116 °C.
`O=C(O)/C(=C/c1ccccc1F)c1ccccc1`: the melting point came out at 169 °C.
`S=C(NCCc1ccccc1)Nc1ccccc1` yielded a melting point of 135 °C.
The value for `CC1(C)OC(=O)C1(C)C` was 132 °C.
In turn, `CCOC(=O)CC1Sc2ccccc2NC1=S` (stereo unspecified) returned a melting point of 106 to 108 °C.
Take `Oc1ccc2cc(Br)ccc2c1`: the melting point is 128 °C.
Take `Oc1ncnc2[nH]ncc12`: the melting point turned out to be 350 °C.
Compound `Nc1nc(-c2ccc3ccccc3c2)cs1` came in with a melting point of 155 °C.
On to `CC(C)C(=NO)C(C)C`, for which the melting point came to 34 °C.
`O=S(=O)(O)CCCNC1CCCCC1`: the melting point was 324 °C.
As for `CCOC(=O)C=C1SC(N2CCCCC2)C(=O)N1CC` (stereo unspecified), the figure is 86 °C; as for `COc1cc(C=Nn2c(C)cc(C)c(C#N)c2=O)ccc1O`, 259 to 260 °C; as for `CC1(C)OC(CO)C(CO)O1` (single isomer, unassigned; (+)), 47 to 51 °C.
For the compound `COC(=O)C1C(O)CCC2CN3CCc4c([nH]c5ccccc45)C3CC21` (stereo unspecified), the melting point stood at 234 °C.
In turn, `Cc1cncc(N2CCC(C(=O)Oc3c(F)c(F)c(F)c(F)c3F)CC2)n1` gave a melting point of 94 to 95 °C.
In turn, `CC(=O)Nc1ccc(F)cc1[N+](=O)[O-]` yielded a melting point of 70 to 73 °C.
As for `CCN(CC)c1nc2ccccc2c(=O)n1-c1ccccc1`, the melting point came to 109 °C.
As to `CCCC(=O)c1ccccc1`, the melting point was found to be 12 °C.
Consider `c1ccc2c(c1)CCc1ccccc1C1(OCCO1)C21OCCO1`, for which the melting point was determined as 111 °C.
The value for `COc1ccc(-c2noc(CCl)n2)cc1` was 52 to 53 °C; that for `Cc1cccc(C(=O)NCC(=O)O)c1` was 138 to 142 °C.
The value for `Cn1nc(-c2ccc(C=O)s2)cc1C(F)(F)F` was 80 to 81 °C; that for `O=S(=O)(O)c1ccc(O)c2ncccc12` was 322 °C.
Turning to `CC(C)c1cc(C(C)C)c(-c2ccccc2P(C2CCCCC2)C2CCCCC2)c(C(C)C)c1`, the melting point came out at 185 °C.
For the compound `CN(C)c1ccc(N=C2C=CC(=O)C=C2)cc1`, the melting point worked out at 134 °C.
Compound `CN1C(=O)NC(=O)C(C)(C2=CCCCC2)C1=O` (stereo unspecified) had a melting point of 146 °C.
Compound `Cn1c(=O)c(C2=NNC(=O)C2=Cc2ccc(Cl)cc2Cl)c(O)c2ccccc21` returned a melting point of 280 °C.
As for `CCN(CC)c1cc(Cl)c2nonc2c1[N+](=O)[O-]`, the figure is 132 to 135 °C.
The compound `N#Cc1ccc(C=NNC(N)=S)cc1` displayed a melting point of 243 to 247 °C.
Take `N#C/C(=N\Nc1cccc(F)c1)c1nc2ccccc2s1`: the melting point came out at 196 °C.
In turn, `O=C(CCCNC(=O)CCCCC(=O)NCCCC(=O)NO)NO` gave a melting point of 163 °C.
`Brc1cccc2cccnc12` gave a melting point of 58 to 59 °C.
For `COC(=O)C(Cc1ccc(O)cc1)NC(=O)OC(C)(C)C` (stereo unspecified), the melting point amounted to 107 °C.
The value for `CC1(C)C(=O)N(Br)C(=O)N1Br` was 187 to 191 °C; that for `Cc1c2c(c(CCl)c3c1CC3)CC2` was 73 °C.
On to `CCCBr`, for which the melting point was -110 °C.
As for `CCNS(=O)(=O)c1ccc(C)cc1`, the figure is 64 °C.
`Nc1ccnc(N)c1` showed a melting point of 107 °C.
Turning to `CCCCOCN(C(=O)CCl)c1c(CC)cccc1CC`, the melting point is -0.55 °C.
The value for `Cc1cc(C(F)(F)F)n2nc(N)c(/N=N/c3ccccc3[N+](=O)[O-])c2n1` was 235 °C; that for `CCOC(=O)c1cn[nH]c1` was 77 °C; that for `Nc1c(Br)cc(C(F)(F)F)cc1[N+](=O)[O-]` was 71 °C.
As to `CC(C)(C)c1ccc(-c2nnc(S)n2Cc2ccco2)cc1`, the melting point is 156 to 158 °C.
The value for `CCC1(C2=CC3CCC(C2)C3)C(=O)NC(=O)NC1=O` (stereo unspecified) was 213 °C; that for `COC(CNC(c1ccccc1)C(O)c1ccccc1)OC` (stereo unspecified) was 145 °C.
Compound `CC(C)(O)CCSc1ccc(S(N)(=O)=O)cc1` yielded a melting point of 140 °C.
In turn, `NC(CCC(=O)O)C(=O)O` (stereo unspecified) displayed a melting point of 205 °C.
Take `CC(=O)c1ccc(C#Cc2ccccc2)cc1`: the melting point amounted to 101 °C.
`COc1cc(C=C2C(=O)NC(=N)N2C)ccc1O` showed a melting point of 270 to 273 °C.
In the case of `N=C(Nc1ccccc1)c1ccccc1`, the melting point was determined as 119 °C.
The compound `COc1cc(C(=O)NN)cc(OC)c1O` registered a melting point of 156 °C.
The compound `S=c1[nH]ccn1-c1ccccc1` showed a melting point of 177 to 179 °C.
The value for `Cc1cccc(C(=O)N(NC(=O)c2ccccc2)C(C)(C)C)c1C` was 204 °C; that for `Nc1nn2c(C(F)(F)F)cc(=O)[nH]c2c1/N=N/c1c(Cl)cc(Cl)cc1Cl` was 275 °C.
`CC(=O)c1ccn(S(=O)(=O)c2ccccc2)c1` had a melting point of 89 to 92 °C.
Take `O=[N+]([O-])c1cccnc1Oc1ccc(F)cc1F`: the melting point was 63 to 65 °C.
Consider `CC(C)NCC(O)c1ccc2ccccc2c1` (stereo unspecified), for which the melting point is 108 °C.
For the compound `Oc1cccc(F)c1F`, the melting point stood at 36 °C.
On to `O=C(O)c1cncc(Br)c1`, for which the melting point was 184 °C.
The compound `CN(C)CCOc1ccc(C(=C(CCCl)c2ccccc2)c2ccccc2)cc1` yielded a melting point of 108 °C.
Regarding `CC(C=CC=C(C)C(=O)O)=CC=CC=C(C)C=CC=C(C)C(=O)O`, the melting point was found to be 286 °C.
In turn, `CCc1n[nH]c2c1C(c1ccccc1)C(C#N)=C(N)O2` (stereo unspecified) displayed a melting point of 192 to 196 °C.
The value for `Cc1ccc(/C=C2\CN(S(=O)(=O)c3ccc(C)cc3)c3ccccc3N2S(=O)(=O)c2ccc(C)cc2)cc1` was 155 °C; that for `CC(=O)O[C@@H]1[C@@H](OC(C)=O)[C@H](C)O[C@@H](OCc2ccccc2)[C@@H]1OC(C)=O` was 110 to 113 °C.
As to `O=C1OC(=O)C2CCCCC12` (stereo unspecified), the melting point was determined as 32 °C.
For `CC1Cc2ccccc2N1` (stereo unspecified), the melting point is -51 °C.
As for `COC1=C(OC)C(=O)C(C)=C(C)C1=O`, the melting point was found to be 62.5 °C.
With `CC1CCC(C(C)C)C(OC(=O)C(C)O)C1` (single isomer, unassigned; (-)), the melting point was determined as 40 °C.
The value for `NC(=O)C1=CNCCC1C(F)(F)F` (stereo unspecified) was 184 to 187 °C.
The value for `C#CC1(O)CCC2C3CC=C4C=C(C(C)(C)C(=O)O)CCC4(C)C3CCC21C` (stereo unspecified) was 257 to 260 °C; that for `Fc1cccc(C(F)(F)F)c1CBr` was 44 °C; that for `c1ccc(-c2noc(-c3ccccc3)n2)cc1` was 109 °C.
In the case of `C=C1N(C)c2ccccc2C1(C)C`, the melting point is -8 °C.
For the compound `CCCCCc1ccc(O)cc1O`, the melting point is 72.5 °C.
With `CC(C)(C)CC(=O)OCC(=O)C1(O)CCC2C3CCC4=CC(=O)CCC4(C)C3C(O)CC21C` (stereo unspecified), the melting point turned out to be 168 °C.
Consider `CCc1ccc(C(c2ccc(CC)cc2)C(Cl)Cl)cc1`, for which the melting point was 56 °C.
In turn, `OC(c1ccccc1)(c1ccccc1)C(O)(c1ccccc1)c1ccccc1` had a melting point of 184 to 186 °C.
In the case of `O=[N+]([O-])c1ccc(OCCCBr)cc1`, the melting point lay in the range of 56 to 58 °C.
The compound `CNc1ccc(N)c2c1C(=O)c1ccccc1C2=O` returned a melting point of 193 °C.
In turn, `Sc1nnc(-c2ccco2)n1-c1ccc(OCc2ccccc2)cc1` gave a melting point of 236 to 238 °C.
`O=C1OC(=O)c2cc(Br)ccc21` came in with a melting point of 107 °C.
Compound `CCOC(=O)CC(CC(=O)OCC)(c1cc(C)c(O)c(C)c1)c1cc(C)c(O)c(C)c1` came in with a melting point of 178 °C.
`COC(=O)c1ccc(CO)cc1` gave a melting point of 45 to 50 °C.
With `O=C(O)COc1nn(Cc2ccccc2)c2ccccc12`, the melting point stood at 160 °C.
In the case of `COC(=O)C1=C(C(=O)OC)CC2=C(CC3=C(C2)CC(C(=O)OC)=C(C(=O)OC)C3)C1`, the melting point is 260 to 262 °C.
`Cc1ccc2c3ccccc3c3ccccc3c2c1` showed a melting point of 100 °C.
`N#CCCN1CCN(CCC#N)CC1` gave a melting point of 65 °C.
For the compound `N#C/C(=N\Nc1cc(Cl)ccc1Cl)c1nc2ccccc2[nH]1`, the melting point lay within 300 to 302 °C.
`CCCCc1cc2c(O)c(C(=O)OC)cnc2cc1OCc1ccccc1` showed a melting point of 288 °C.
In turn, `O=[N+]([O-])c1ccccc1SCl` displayed a melting point of 74 °C.
In turn, `Clc1ccc(CSC(Cn2cncn2)=Nc2ccc(Cl)cc2Cl)cc1` yielded a melting point of 90 °C.
As for `O=C1c2ccccc2C(O)(O)C1(O)C1(O)C(=O)c2ccccc2C1(O)O` (stereo unspecified), the figure is 240 °C; as for `O=C(Cl)c1ccc(-c2ccccc2)cc1`, 113 °C.
In turn, `O=C(C1=NOC2C(=O)N(c3ccc(F)cc3)C(=O)C12)c1ccc2ccccc2c1` (stereo unspecified) displayed a melting point of 193 °C.
As to `O=C(CNc1ccccc1)c1ccc(C(=O)CNc2ccccc2)cc1`, the melting point was > 200 °C.
`NS(=O)(=O)c1ccc(S(=O)(=O)CCCCO)c(F)c1` yielded a melting point of 134 °C.
`CC(=O)c1cc(O)cc(O)c1` gave a melting point of 143 to 147 °C.
For `CC1(C)CCC(=Cc2ccc(Cl)cc2)C1(O)Cn1cncn1` (stereo unspecified), the melting point turned out to be 140 °C.
Compound `O=C(O)c1cc2nccnc2s1` registered a melting point of 220 °C.
For `Cc1[nH]c(=O)n(C(C)C)c(=O)c1Br`, the melting point was 158 °C.
With `CC1=CCC/C1=N\Nc1ccc([N+](=O)[O-])cc1[N+](=O)[O-]`, the melting point came to 222 °C.
With `O=Cc1cccc(C(F)(F)F)c1Cl`, the melting point was 44 °C.
The value for `CC12CCC(O)CC1CCC1C2CCC2(C)C(OC(=O)c3ccccc3)CCC12` (stereo unspecified) was 194 °C.
`O=[N+]([O-])c1cc([N+](=O)[O-])c(Cl)cc1Cl` showed a melting point of 101 °C.
